From patent US20070258970A1, “Methods for Inhibiting Hiv and Other Viral Infections by Modulating Ceramide Metabolism” (priority 2003, published 2007) come the findings set out here.

In data set [1] the test system is ceramide. The data set is described as follows: Ceramide quantitation by [3H]sphingosine incorporation in HeLa-derived target cells. The format is cell-based.
The subject of data set [2] is HIV-1. The data set is described as follows: HIV-1 infection of primary monocyte derived macrophages. The format is cell-based. The note with it: low uM concentrations, pretreated 2 days.
The next data set deals with CCR5. The data set is described as follows: Flow cytometry of cell surface CCR5 on TMZ cells. In kind it is cell-based. As for the experimental part: (§1) TMZ cells, harvested with trypsin-EDTA in PBS, were centrifuged at 450×g and resuspended at 10^6 cells/ml in PBS-5% FBS-5% normal mouse serum. After incubation for 15 min at room temperature, the cells were washed twice in PBS-0.1% bovine serum albumin and resuspended in 100 μl of PBS-5% FBS-5% normal mouse serum. 20 μl of Phycoerythrin (PE)-conjugated mouse immunoglobulin G (IgG) anti-CD4, PE-conjugated mouse IgG anti-CXCR4, or PE-conjugated mouse IgG anti-CCR5, from Becton Dickenson (San Jose, Calif.) was then added to each sample. Cells were incubated at 4° C. for 1 hour and washed twice in PBS-0.1% BSA. Samples were fixed in PBS-1% paraformaldehyde and resuspended in 1 ml of PBS to be read by a FACScalibur instrument (Becton Dickinson, San Jose, Calif.) at 10,000 events/sample with respect to unlabeled cells.
(§2) Increasing ceramide concentrations is thought to perturb membrane properties due to the hydrophobic nature of this lipid and the tendency to self aggregate. The possible consequences of membrane altering properties on the cell surface expression of the main HIV receptors, CD4, X4 and R5, was investigated. […] CD4 expression decreases in a dose dependent manner from a control level of 100% to levels of 70%, 57% and 27% following treatment with 2, 5 and 10 μM of a 4-HPR compound respectively.
(In general: A flow cytometer gives signals particle by particle.)

The next data set concerns VSV pseudotyped HIV-1. In kind it is cell-based.
Data set [3] relates to ceramide. Description: Ceramide level in monocyte derived macrophages. The note with it: 5 uM.
A further data set deals with Sendai virus. The data set is described as follows: R18 fluorescence dequenching viral fusion assay. As to conditions: increasing concentrations, 37° C., pH7; FIG. 9.
Data set [4] deals with HIV-1. The format is cell-based.
The subject of the next data set is CXCR4. Description: Flow cytometry of cell surface CXCR4 on TMZ cells. In kind it is cell-based. As to conditions: 2 μM. Here is the method:
as §1, §2

The next data set has as its system cells. The data set is described as follows: Apoptotic effects on the cells by annexin 5 staining / toxicity. In kind it is cell-based. The note with it: at the low concentrations that inhibit HIV-1.
The next data set deals with HIV-1 gp160 (HXB2). Description: Cell-cell fusion assay (HeLa cells expressing HIV-1 gp160 with TMZ target cells, luciferase). The note with it: pretreated target cells, alone or combined; FIG. 8B.
A further data set has as its system CD4. The data set is described as follows: Flow cytometry of cell surface CD4 on TMZ cells. The format is cell-based. Here is the method:
as §1, §2

Description for HIV-1 gp160 (HXB2): Target TMZ cells were plated at 0.75×10^4 cells per well in a 96 well plate and treated with a 4-BPR compound for 48 hours with 5% CO2 in a humidified incubator. HeLa cells expressing HUV-1 gp160 (HXB2) in addition to gag, tat, rev and nef were then cocultured with target cells containing the tat inducible luciferase reporter cassette. Envelope and target cells were cocultivated at 37° C. for 7 hours. Luciferase activity was then measured using a Promega (Madison, Wis.) luciferase assay system kit. Briefly, the supernatants were removed and the cells were lysed with Steady Glo luciferase assay system. The light intensity of each well was measured on a Reporter luminometer. Mock-infected cells were used to determine background luminescence. All infectivity assays were performed in duplicate.
Briefly, HeLa cells expressing HIV-1 gp160 (HXB2) in addition to gag, tat, rev and nef were cocultured with CD4 positive target cells containing the tat inducible luciferase reporter cassette. […] Envelope and target cells were cocultivated at 37° C. for 7 hours following which the cells were lysed and luciferase activity quantitated.
Description for Sendai virus: To further probe how ceramide accumulation might inhibit viral fusion, viral fusion was monitored using a well-established octadecyl rhodamine (R18) fluorescence dequenching (R18-fdq) assay. In this assay system R18-labeled Sendai virus was incubated with control or a 4-HPR compound treated cells for 30 min at 4° C. to allow for virus binding. Small aliquots of virus-cell complexes were added to a stirred cuvette at 37° C. containing 2 ml buffer at pH7. Fluorescence increases were recorded with a 1 sec time resolution in a SLM8000 spectrofluorimeter (SLMInstruments, Urbana, Ill.). […] This increase in fluorescence reflects dequenching of R18 upon the merging of viral and cell membranes.

Consider `CC1=C(/C=C/C(C)=C/C=C/C(C)=C/C(=O)Nc2ccc(O)cc2)C(C)(C)CCC1` [4-HPR compound, N-(4-hydroxyphenyl)retinamide], for which the increase in ceramide in the data set on ceramide [1] (HeLa cells, 5 uM) is 1.7 fold; in the data set on ceramide [3], 1.12 fold. Also, the “HIV-1 infection of macrophages, CCR5 tropic isolate (BaL)” value with HIV-1 [2] (FIG. 6A) was “Infection inhibition was observed”. For the same molecule, the “HIV-1 infection of macrophages, primary isolate” value in the data set with HIV-1 [2] (FIG. 6B) is on record as “Infection inhibition was observed”. The results for the CCR5 expression in the data set with CCR5 (2 μM), with CCR5 (5 μM) and in the data set with CCR5 (10 μM) were 60%, 30% and 7%, respectively. For the same molecule, the “infectivity of VSV pseudotyped HIV-1” value with VSV pseudotyped HIV-1 is recorded as “not impaired”. In the data set with Sendai virus, the “inhibition of Sendai virus fusion (R18 fluorescence dequenching)” value was “dose dependent inhibition”. In the data set on HIV-1 [4] (X4 (NL4-3, MN), R5 (Bal, JRCSF) and primary isolates, FIG. 3b), the “inhibition of HIV-1 isolates” value is “dose-dependent inhibition”. Also, the CXCR4 expression in the data set on CXCR4 was determined as 18%. In the data set on cells, the toxicity entry is given as “minimal toxicity”. For the same molecule, the inhibition of fusion in the data set on HIV-1 gp160 (HXB2) is given as 20%. For the same molecule, the “CD4 expression (control level 100%)” value is on record as 70% with CD4 (2 μM), 57% in the data set on CD4 (5 μM) and 27% in the data set on CD4 (10 μM).
Consider `CCCCCCCCCCCCC/C=C/[C@@H](O)[C@H](CO)NC(=O)CCCCCCCCCCCCCCC` [C16, C16 ceramide], for which the “inhibition of HIV infection” value in the data set on HIV-1 [4] (pretreatment with 1 μM lipid for 10 minutes at 37° C., FIG. 5) is reported as “approximately 60%”.
With `CCCCCCCCCCCCCCCC(=O)NC(CN1CCOCC1)C(O)c1ccccc1` (centres unmarked) [PPMP, 1-phenyl-2-hexadecanoylamino-3-morpholino-1-propanol], the inhibition of fusion result with HIV-1 gp160 (HXB2) is listed as “ineffective”.
For the molecule sphingomyelinase, the “ceramide levels following enzymatic activity” value in the data set with ceramide [1] (sphingomyelinase pretreated cells) is given as “increased”. Besides, in the data set on HIV-1 [4], the “inhibition of HIV-1 infection” value is listed as 60-70%.
